Values of other authors in patent publication US20240173256A1, “HDL MIMICKING TARGETED DRUG DELIVERY SYSTEM FOR THE TREATMENT OF SOLID TUMORS” (University of North Texas Health Science Center, priority 2022, published 2024).
Like-named read-outs stand apart in the source and are kept apart here.

What was measured:
[1] = rodents
[2] = patients

Q: With `COc1cccc2c1C(=O)c1c(O)c3c(c(O)c1C2=O)C[C@@](O)(C(=O)CO)C[C@@H]3O[C@H]1C[C@H](N)[C@H](O)[C@H](C)O1` [doxorubicin] as the compound, how does the Cardiotoxicity [1] read?
A: ventricular damage proportionate to dosage

Q: And the “Incidence of congestive heart failure” value ([2]; 400 mg/m^2)?
A: 4.7%

Q: What about the “Incidence of congestive heart failure” value ([2]; 550 mg/m^2) of the same compound?
A: 26%

Q: And the “Incidence of congestive heart failure” value ([2]; 700 mg/m^2)?
A: 48%

Q: With `CCCCC(=O)OCC(=O)[C@]1(O)Cc2c(O)c3c(c(O)c2[C@@H](O[C@H]2C[C@H](NCc4ccccc4)[C@H](O)[C@H](C)O2)C1)C(=O)c1c(OC)cccc1C3=O` [AD 198, N-Benzyladriamycin-14-valerate] as the compound, how does the Cardiotoxicity [1] read?
A: no significant cardiotoxicity
